# According to patent US12421210B2, “Fused bicyclic heterocycles as therapeutic agents” (NEW YORK UNIVERSITY, priority 2018, dated 2025):
# Target: human NAMPT enzyme (His-hNAMPT) (Homo sapiens (Human), UniProt P43490)
# Test: NAMPT enzymatic inhibition assay (fluorescence, NADH product)
# Type: biochemical
# Settings: [BPS]; read-out: NAMPT IC50 (μM) [BPS]
# Chain of human NAMPT enzyme (His-hNAMPT) (P43490 whole entry): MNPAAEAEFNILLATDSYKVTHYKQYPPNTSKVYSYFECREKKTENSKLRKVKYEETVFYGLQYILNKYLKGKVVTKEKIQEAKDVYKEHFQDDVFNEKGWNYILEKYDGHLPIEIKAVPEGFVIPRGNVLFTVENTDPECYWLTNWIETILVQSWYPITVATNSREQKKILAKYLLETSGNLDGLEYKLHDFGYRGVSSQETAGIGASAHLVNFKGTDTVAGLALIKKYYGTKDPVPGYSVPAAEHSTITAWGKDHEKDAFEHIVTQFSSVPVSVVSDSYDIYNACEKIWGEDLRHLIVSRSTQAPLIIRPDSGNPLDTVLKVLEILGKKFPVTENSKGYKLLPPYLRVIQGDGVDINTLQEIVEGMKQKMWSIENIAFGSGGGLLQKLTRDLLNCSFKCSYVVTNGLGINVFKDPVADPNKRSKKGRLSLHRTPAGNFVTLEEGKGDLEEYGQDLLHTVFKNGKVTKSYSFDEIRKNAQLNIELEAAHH
row,IC50 [µM],Structure (SMILES)
1,0.01 to 0.49,"O=C(NCC[C@@H]1[C@H]2CN(C(=O)c3ccc(F)cc3)C[C@@H]12)c1cc2ccncc2o1 [Example 97, N-(2-((1R,5S,6s)-3-(4-fluorobenzoyl)-3-azabicyclo[3.1.0]hexan-6-yl)ethyl)furo[2,3-c]pyridine-2-carboxamide]"
2,0.01 to 0.49,"Cc1nc(C)c(C(=O)N2C[C@@H]3[C@@H](CCNC(=O)c4cc5ccncc5o4)[C@@H]3C2)o1 [Example 98, N-(2-((1R,5S,6s)-3-(2,4-dimethyloxazole-5-carbonyl)-3-azabicyclo[3.1.0]hexan-6-yl)ethyl)furo[2,3-c]pyridine-2-carboxamide]"
3,0.01 to 0.49,"O=C(NCC[C@@H]1[C@H]2CN(C(=O)CC3CCOCC3)C[C@@H]12)c1cc2ccncc2o1 [Example 99, N-(2-((1R,5S,6s)-3-(2-(tetrahydro-2H-pyran-4-yl)acetyl)-3-azabicyclo[3.1.0]hexan-6-yl)ethyl)furo[2,3-c]pyridine-2-carboxamide]"
4,0.5 to 0.99,"O=C(NCC[C@@H]1[C@H]2CN(C(=O)C3CCOCC3)C[C@@H]12)c1cc2ccncc2o1 [Example 100, N-(2-((1R,5S,6s)-3-(tetrahydro-2H-pyran-4-carbonyl)-3-azabicyclo[3.1.0]hexan-6-yl)ethyl)furo[2,3-c]pyridine-2-carboxamide]"
5,0.01 to 0.49,"Cc1nc(C)c(C(=O)N2C[C@@H]3[C@@H](CCNC(=O)c4ccc5nccn5c4)[C@@H]3C2)o1 [Example 103, N-(2-((1R,5S,6s)-3-(2,4-dimethyloxazole-5-carbonyl)-3-azabicyclo[3.1.0]hexan-6-yl)ethyl)imidazo[1,2-a]pyridine-6-carboxamide]"
6,0.01 to 0.49,"Cc1nc(C)c(C(=O)N2C[C@@H]3[C@@H](CCNC(=O)/C=C/c4cccnc4)[C@@H]3C2)o1 [Example 105, (E)-N-(2-((1R,5S,6s)-3-(2,4-dimethyloxazole-5-carbonyl)-3-azabicyclo[3.1.0]hexan-6-yl)ethyl)-3-(pyridin-3-yl)acrylamide]"
7,0.01 to 0.49,"Cc1nc(C)c(C(=O)N2C[C@@H]3[C@@H](CCNC(=O)c4cnc5nccn5c4)[C@@H]3C2)o1 [Example 108, N-(2-((1R,5S,6s)-3-(2,4-dimethyloxazole-5-carbonyl)-3-azabicyclo[3.1.0]hexan-6-yl)ethyl)imidazo[1,2-a]pyrimidine-6-carboxamide]"
8,0.01 to 0.49,"Cc1nc(C)c(C(=O)N2C[C@@H]3[C@@H](CCNC(=O)c4cc(-c5cccnc5)on4)[C@@H]3C2)o1 [Example 111, N-(2-((1R,5S,6s)-3-(2,4-dimethyloxazole-5-carbonyl)-3-azabicyclo[3.1.0]hexan-6-yl)ethyl)-5-(pyridin-3-yl)isoxazole-3-carboxamide]"
9,0.01 to 0.49,"Cc1nc(C)c(C(=O)N2C[C@@H]3[C@@H](CCNC(=O)c4cc5cnccc5[nH]4)[C@@H]3C2)o1 [Example 113, N-(2-((1R,5S,6s)-3-(2,4-dimethyloxazole-5-carbonyl)-3-azabicyclo[3.1.0]hexan-6-yl)ethyl)-1H-pyrrolo[3,2-c]pyridine-2-carboxamide]"
10,0.01 to 0.49,"O=C(NCC[C@@H]1[C@H]2CN(c3ncccn3)C[C@@H]12)c1cc2ccncc2o1 [Example 119, N-(2-((1R,5S,6s)-3-(pyrimidin-2-yl)-3-azabicyclo[3.1.0]hexan-6-yl)ethyl)furo[2,3-c]pyridine-2-carboxamide]"
11,0.01 to 0.49,"O=C(NCC[C@@H]1[C@H]2CN(c3nc4ccccc4s3)C[C@@H]12)c1cc2ccncc2o1 [Example 120, N-(2-((1R,5S,6s)-3-(benzo[d]thiazol-2-yl)-3-azabicyclo[3.1.0]hexan-6-yl)ethyl)furo[2,3-c]pyridine-2-carboxamide]"

# The remaining lines, values behind:
row,Structure (SMILES),IC50 [µM]
1,"Nc1ccc(/C=C/C(=O)NCC[C@@H]2[C@H]3CN(C(=O)c4ccc(OC(F)F)cc4)C[C@@H]23)cn1 [Example 90, (E)-3-(6-aminopyridin-3-yl)-N-(2-((1R,5S,6s)-3-(4-(difluoromethoxy)benzoyl)-3-azabicyclo[3.1.0]hexan-6-yl)ethyl)acrylamide]",0.01 to 0.49
2,"Nc1ccc(/C=C/C(=O)NCC[C@@H]2[C@H]3CN(C(=O)c4cccc(OC(F)F)c4)C[C@@H]23)cn1 [Example 91, (E)-3-(6-aminopyridin-3-yl)-N-(2-((1R,5S,6s)-3-(3-(difluoromethoxy)benzoyl)-3-azabicyclo[3.1.0]hexan-6-yl)ethyl)acrylamide]",0.01 to 0.49
3,"Cc1ccncc1C(=O)N1C[C@@H]2[C@@H](CCNC(=O)/C=C/c3ccc(N)nc3)[C@@H]2C1 [Example 92, (E)-3-(6-aminopyridin-3-yl)-N-(2-((1R,5S,6s)-3-(4-methylnicotinoyl)-3-azabicyclo[3.1.0]hexan-6-yl)ethyl)acrylamide]",0.01 to 0.49
4,"CN1CCC(c2ccc(C(=O)N3C[C@@H]4[C@@H](CCNC(=O)/C=C/c5ccc(N)nc5)[C@@H]4C3)cc2)CC1 [Example 93, (E)-3-(6-aminopyridin-3-yl)-N-(2-((1R,5S,6s)-3-(4-(1-methylpiperidin-4-yl)benzoyl)-3-azabicyclo[3.1.0]hexan-6-yl)ethyl)acrylamide]",0.01 to 0.49
5,"Nc1ccc(/C=C/C(=O)NCC[C@@H]2[C@H]3CN(C(=O)CC4CCOCC4)C[C@@H]23)cn1 [Example 94, (E)-3-(6-aminopyridin-3-yl)-N-(2-((1R,5S,6s)-3-(2-(tetrahydro-2H-pyran-4-yl)acetyl)-3-azabicyclo[3.1.0]hexan-6-yl)ethyl)acrylamide]",0.01 to 0.49
6,"Nc1ccc(/C=C/C(=O)NCC[C@@H]2[C@H]3CN(C(=O)C4CCOCC4)C[C@@H]23)cn1 [Example 95, (E)-3-(6-aminopyridin-3-yl)-N-(2-((1R,5S,6s)-3-(tetrahydro-2H-pyran-4-carbonyl)-3-azabicyclo[3.1.0]hexan-6-yl)ethyl)acrylamide]",0.01 to 0.49
7,"CC(C)(C)CNC(=O)N1C[C@@H]2[C@@H](CCNC(=O)/C=C/c3ccc(N)nc3)[C@@H]2C1 [Example 96, (1R,5S,6s)-6-(2-((E)-3-(6-aminopyridin-3-yl)acrylamido)ethyl)-N-neopentyl-3-azabicyclo[3.1.0]hexane-3-carboxamide]",0.01 to 0.49
8,"O=C(NCC[C@@H]1[C@H]2CN(C(=O)CC3CCOCC3)C[C@@H]12)c1ccc2nccn2c1 [Example 101, N-(2-((1R,5S,6s)-3-(2-(tetrahydro-2H-pyran-4-yl)acetyl)-3-azabicyclo[3.1.0]hexan-6-yl)ethyl)imidazo[1,2-a]pyridine-6-carboxamide]",0.01 to 0.49
9,"O=C(NCC[C@@H]1[C@H]2CN(C(=O)c3ccc(F)cc3)C[C@@H]12)c1ccc2nccn2c1 [Example 102, N-(2-((1R,5S,6s)-3-(4-fluorobenzoyl)-3-azabicyclo[3.1.0]hexan-6-yl)ethyl)imidazo[1,2-a]pyridine-6-carboxamide]",0.01 to 0.49
10,O=C(/C=C/c1cccnc1)NCC[C@@H]1[C@H]2CN(C(=O)CC3CCOCC3)C[C@@H]12 [Example 104],0.01 to 0.49
11,"O=C(NCC[C@@H]1[C@H]2CN(C(=O)CC3CCOCC3)C[C@@H]12)c1cnc2nccn2c1 [Example 106, N-(2-((1R,5S,6s)-3-(2-(tetrahydro-2H-pyran-4-yl)acetyl)-3-azabicyclo[3.1.0]hexan-6-yl)ethyl)imidazo[1,2-a]pyrimidine-6-carboxamide]",0.01 to 0.49
12,"O=C(NCC[C@@H]1[C@H]2CN(C(=O)c3ccc(F)cc3)C[C@@H]12)c1cnc2nccn2c1 [Example 107, N-(2-((1R,5S,6s)-3-(4-fluorobenzoyl)-3-azabicyclo[3.1.0]hexan-6-yl)ethyl)imidazo[1,2-a]pyrimidine-6-carboxamide]",0.01 to 0.49
13,"O=C(NCC[C@@H]1[C@H]2CN(C(=O)CC3CCOCC3)C[C@@H]12)c1cc(-c2cccnc2)on1 [Example 109, 5-(pyridin-3-yl)-N-(2-((1R,5S,6s)-3-(2-(tetrahydro-2H-pyran-4-yl)acetyl)-3-azabicyclo[3.1.0]hexan-6-yl)ethyl)isoxazole-3-carboxamide]",0.01 to 0.49
14,"O=C(NCC[C@@H]1[C@H]2CN(C(=O)c3ccc(F)cc3)C[C@@H]12)c1cc(-c2cccnc2)on1 [Example 110, N-(2-((1R,5S,6s)-3-(4-fluorobenzoyl)-3-azabicyclo[3.1.0]hexan-6-yl)ethyl)-5-(pyridin-3-yl)isoxazole-3-carboxamide]",0.01 to 0.49
15,"O=C(NCC[C@@H]1[C@H]2CN(C(=O)CC3CCOCC3)C[C@@H]12)c1cc2cnccc2[nH]1 [Example 112, N-(2-((1R,5S,6s)-3-(2-(tetrahydro-2H-pyran-4-yl)acetyl)-3-azabicyclo[3.1.0]hexan-6-yl)ethyl)-1H-pyrrolo[3,2-c]pyridine-2-carboxamide]",0.01 to 0.49
16,"O=C(/C=C/c1cccnc1)NCC[C@@H]1[C@H]2CN(c3ccccc3)C[C@@H]12 [Example 117, (E)-N-(2-((1R,5S,6s)-3-phenyl-3-azabicyclo[3.1.0]hexan-6-yl)ethyl)-3-(pyridin-3-yl)acrylamide]",0.01 to 0.49
17,"O=C(NCC[C@@H]1[C@H]2CN(c3ncccn3)C[C@@H]12)c1ccc2nccn2c1 [Example 118, N-(2-((1R,5S,6s)-3-(pyrimidin-2-yl)-3-azabicyclo[3.1.0]hexan-6-yl)ethyl)imidazo[1,2-a]pyridine-6-carboxamide]",0.01 to 0.49
18,"O=C(NCC[C@@H]1[C@H]2CN(c3cccc4ccccc34)C[C@@H]12)c1cc2ccncc2o1 [Example 121, N-(2-((1R,5S,6s)-3-(naphthalen-1-yl)-3-azabicyclo[3.1.0]hexan-6-yl)ethyl)furo[2,3-c]pyridine-2-carboxamide]",0.01 to 0.49

# Same assay, conditions: [HDB]; read-out: NAMPT IC50 (μM) [HDB]
row,IC50 [µM],Structure (SMILES)
1,0.01 to 0.49,"Cc1nc(C)c(C(=O)N2C[C@@H]3[C@@H](CCNC(=O)c4cc5ccncc5s4)[C@@H]3C2)o1 [Example 114, N-(2-((1R,5S,6s)-3-(2,4-dimethyloxazole-5-carbonyl)-3-azabicyclo[3.1.0]hexan-6-yl)ethyl)thieno[2,3-c]pyridine-2-carboxamide]"
2,< 0.01,"NC(=O)c1cccc(C(=O)N2C[C@@H]3[C@@H](CCNC(=O)/C=C/c4cccnc4)[C@@H]3C2)c1 [Example 115, 3-((1R,5S,6s)-6-(2-((E)-3-(pyridin-3-yl)acrylamido)ethyl)-3-azabicyclo[3.1.0]hexane-3-carbonyl)benzamide]"
3,0.01 to 0.49,"NC(=O)c1cccc(C(=O)N2C[C@@H]3[C@@H](CCNC(=O)c4cc5cnccc5[nH]4)[C@@H]3C2)c1 [Example 116, N-(2-((1R,5S,6s)-3-(3-carbamoylbenzoyl)-3-azabicyclo[3.1.0]hexan-6-yl)ethyl)-1H-pyrrolo[3,2-c]pyridine-2-carboxamide]"
